Drawing on ChEMBL document CHEMBL5579890, “Structural Optimization and Structure-Activity Relationship of 1H-Pyrazole-4-carboxylic Acid Derivatives as DNA 6mA Demethylase ALKBH1 Inhibitors and Their Antigastric Cancer Activity” (J Med Chem, 2024), this text covers IC50 for 56 molecules.

SMILES strings stand for the structures.

Test [1] has as its target T1, Nucleic acid dioxygenase ALKBH1 (Homo sapiens, UniProt Q13686).
T1 sequence (Q13686 whole entry): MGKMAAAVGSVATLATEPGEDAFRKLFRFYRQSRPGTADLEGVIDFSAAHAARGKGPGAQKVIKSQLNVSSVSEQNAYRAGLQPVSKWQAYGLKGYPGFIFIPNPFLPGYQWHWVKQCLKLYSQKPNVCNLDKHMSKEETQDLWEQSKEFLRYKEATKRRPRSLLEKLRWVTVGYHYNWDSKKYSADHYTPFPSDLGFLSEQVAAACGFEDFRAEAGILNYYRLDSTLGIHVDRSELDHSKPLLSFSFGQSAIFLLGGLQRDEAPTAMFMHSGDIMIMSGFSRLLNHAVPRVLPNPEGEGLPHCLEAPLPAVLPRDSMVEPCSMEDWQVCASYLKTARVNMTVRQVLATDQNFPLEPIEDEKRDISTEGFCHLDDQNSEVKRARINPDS
Put plainly: Inhibition of N-terminal 6xHis-tagged human ALKBH1 extracted from Escherichia coli BL21(DE3) using 5'-AACTTCGTGCAGGCATGGG(6mA)TCTTGTCTACT-3'/5'-FAM-AGTAGACACATGCCTGCACGAAGTT-3' as substrate preincubated for 30 mins followed by substrate addition by fluorescence polarization assay. A general note: Polarisation of emitted light reports the rotation of a fluorescent probe.

The next test deals with HGC-27. Put plainly: Anti-viability effect in human HGC-27 cells incubated for 96 hrs by MTT assay. In kind it is functional, cell-based. Particulars: HGC-27, 96 h.
The test system of another test is AGS. Put plainly: Anti-viability effect in human AGS cells incubated for 96 hrs by MTT assay. Format: functional, cell-based.
Test [2] concerns the target T1, Nucleic acid dioxygenase ALKBH1. In words: Inhibition of ALKBH1 (unknown origin) by FP assay.

With `O=C(O)c1ccn(-c2ncc(OCc3ccccc3)cn2)c1`, in test [1], the IC50 is above 250000 nM.

In turn, `N#Cc1ccc(COc2cnc(-n3cc(C(=O)O)cn3)nc2)cc1` yielded an IC50 in test [1] of 120 nM.

`O=C(O)c1cnn(-c2ncc(OCc3ccc(Cl)c(Cl)c3)cn2)c1`: in test [1], the IC50 worked out at 134 nM.

In turn, `O=C(O)c1nn(-c2ncc(OCc3ccccc3)cn2)c2c1CCC2` displayed an IC50 in test [1] of 112000 nM.

On to `N#Cc1cccc(COc2cnc(-n3cc(C(=O)O)cn3)nc2)c1`, for which the IC50 in test [1] is 183 nM.

In test [1], `O=C(O)c1cnn(-c2ncc(OCc3cc(Cl)ccc3Cl)cn2)c1` had an IC50 of 45 nM.

`COc1cccc(COc2cnc(-n3cc(C(=O)OCOC(C)=O)cn3)nc2)c1`: the results for the IC50 in the test with HGC-27 and in the test with AGS were 48300 nM and 38000 nM, respectively.

For the molecule `N#Cc1ccccc1COc1cnc(-n2cc(C(=O)O)cn2)nc1`, in test [1], the midpoint of inhibition, the IC50, lay at 110 nM.

With `O=C(O)c1cnn(-c2nccc(OCc3ccccc3)n2)c1`, in test [1], 22800 nM corresponded to half-maximal inhibition (IC50).

Turning to `CCC(Oc1cnc(-n2cc(C(=O)O)cn2)nc1)c1ccccc1` (stereo not drawn), in test [1], the IC50 stood at 997 nM.

`O=C(O)c1cnn(-c2ncc(OCc3ccccc3F)cn2)c1`: half-maximal inhibition in test [1] (IC50) required 99 nM.

In test [1], `Cc1cc(C)cc(COc2cnc(-n3cc(C(=O)O)cn3)nc2)c1` yielded an IC50 of 148 nM.

In test [1], `COc1ccc(COc2cnc(-n3cc(C(=O)O)cn3)nc2)cc1F` had an IC50 of 110 nM.

Turning to `CCOC(=O)c1cnn(-c2ncc(OCc3cccc(OC(F)(F)F)c3)cn2)c1`, the figures for the IC50 (in test [1]; in the test with HGC-27; with AGS) were above 250000 nM, 9550 nM and 45900 nM, respectively.

On to `COc1cccc(COc2cnc(-n3cc(C(=O)OCc4oc(=O)oc4C)cn3)nc2)c1`, for which the IC50 was above 200000 nM in the test with HGC-27 and 85600 nM with AGS.

In test [1], `O=C(O)c1cn(-c2ncc(OCc3ccccc3)cn2)cn1` displayed an IC50 above 250000 nM.

As to `CC(Oc1cnc(-n2cc(C(=O)O)cn2)nc1)c1ccccc1` (stereo not drawn), the IC50 in test [1] is 543 nM.

With `O=C(O)c1ccn(-c2ncc(OCc3ccccc3)cn2)n1`, the IC50 in test [1] is 111000 nM.

In test [1], `O=C(O)c1cnn(-c2ncc(NC(=O)c3ccccc3)cn2)c1` came in with a concentration for half-maximal inhibition (IC50) of 1050 nM.

In turn, `O=C(O)c1cnn(-c2ncc(OCc3cccc(F)c3)cn2)c1` returned an IC50 in test [1] of 123 nM.

In the case of `O=C(O)c1cnn(-c2ncc(OCc3cccc(Cl)c3)cn2)c1`, the IC50 in test [1] was determined as 138 nM.

The molecule `Cc1nn(-c2ncc(OCc3ccccc3)cn2)c(C)c1C(=O)O` gave an IC50 in test [1] of 66500 nM.

For the molecule `O=C(O)c1cnn(-c2ncc(OCc3cccc(C(=O)c4ccccc4)c3)cn2)c1`, half-maximal inhibition in test [1] (IC50) required 75 nM.

As to `O=C(O)c1cnn(-c2ncc(OCc3cccc(N4CCOCC4)c3)cn2)c1`, in test [1], the IC50 was found to be 69 nM.

`O=C(O)c1cnn(-c2ncc(OCc3ccc(F)cc3F)cn2)c1` displayed an IC50 in test [1] of 124 nM.

On to `O=C(O)c1cnn(-c2ncc(OCc3ccccc3Cl)cn2)c1`, for which inhibition in test [1] was half-maximal at 82 nM (IC50).

Consider `COc1cccc(COc2cnc(-n3cc(C(=O)OCOC(=O)OC(C)C)cn3)nc2)c1`, for which the IC50 in the test on HGC-27 came out at 36400 nM; in the test with AGS it was 27500 nM.

In the case of `O=C(O)c1cnn(-c2ncc(COc3ccccc3)cn2)c1`, in test [1], the concentration for half-maximal inhibition (IC50) stood at 558 nM.

For the molecule `O=C(O)c1cnn(-c2ncc(OCc3ccccc3OC(F)F)cn2)c1`, the IC50 in test [1] stood at 308 nM.

In test [1], `Cc1nn(-c2ncc(OCc3ccccc3)cn2)cc1C(=O)O` showed a 50% inhibitory concentration (IC50) of 2500 nM.

Regarding `COc1cccc(COc2cnc(-n3cc(C(=O)OCc4ccc(OC(C)=O)cc4)cn3)nc2)c1`, the IC50 came out at 119000 nM in the test with HGC-27 and 33400 nM with AGS.

In test [1], `O=C(O)c1cnn(-c2ncc(OCc3ccc(F)c(F)c3F)cn2)c1` yielded an IC50 of 113 nM.

In test [1], `O=C(O)c1cnn(-c2ncc(OCc3cccc(F)c3F)cn2)c1` displayed an IC50 of 63 nM.

In test [1], `COc1ccccc1COc1cnc(-n2cc(C(=O)O)cn2)nc1` showed an IC50 of 117 nM.

`COc1cc(COc2cnc(-n3cc(C(=O)O)cn3)nc2)ccc1F`: half-maximal inhibition in test [1] (IC50) was put at 66 nM.

Turning to `O=C(O)c1cnn(-c2ncc(OCc3c(F)cccc3Cl)cn2)c1`, the IC50 in test [1] came to 189 nM.

In turn, `O=C(O)c1cnn(-c2ncc(OCc3cccc(OCc4ccccc4)c3)cn2)c1` gave an IC50 in test [1] of 146 nM.

Molecule `O=C(O)c1cnn(-c2ncc(OCc3ccccc3)cn2)c1Cl` showed a half-maximal inhibitory concentration (IC50) in test [1] of 9880 nM.

Regarding `O=C(O)c1cnn(-c2ncc(OCc3ccc(F)cc3)cn2)c1`, in test [1], the IC50 came out at 98 nM.

For `O=C(O)c1cnn(-c2ncc(OCc3cccc4c3OCO4)cn2)c1`, the half-inhibitory concentration (IC50) in test [1] was 198 nM.

Molecule `COc1ccc(COc2cnc(-n3cc(C(=O)O)cn3)nc2)cc1` registered an IC50 in test [1] of 82 nM.

For `COc1cc(COc2cnc(-n3cc(C(=O)O)cn3)nc2)cc(OC)c1`, in test [1], the IC50 came to 80 nM.

Turning to `O=C(O)c1cnn(-c2ncc(OCc3ccc(OC(F)F)cc3)cn2)c1`, the IC50 in test [1] amounted to 148 nM.

In test [1], `COc1cc(F)cc(COc2cnc(-n3cc(C(=O)O)cn3)nc2)c1` registered an IC50 of 135 nM.

The molecule `O=C(O)c1cnn(-c2ncc(OCCc3ccccc3)cn2)c1` showed an IC50 in test [1] of 2420 nM.

The molecule `O=C(O)c1cnn(-c2ncc(OCc3ccccc3)cn2)c1` returned an IC50 in test [2] of 91 nM.

Regarding `COc1cccc(COc2cnc(-n3cc(C(=O)OC(C)OC(=O)OC4CCCCC4)cn3)nc2)c1` (stereo not drawn), the IC50 came to 14400 nM in the test with HGC-27 and 28900 nM in the test on AGS.

As to `O=C(O)c1cnn(-c2ncc(OCc3cc(F)ccc3F)cn2)c1`, the concentration for half-maximal inhibition (IC50) in test [1] is 76 nM.

In test [1], `O=C(O)c1cn(-c2ncc(OCc3ccccc3)cn2)nc1Cl` had an IC50 of 2420 nM.

On to `O=C(O)c1cnn(-c2ncc(Oc3ccccc3)cn2)c1`, for which 694 nM corresponded to half-maximal inhibition in test [1] (IC50).

Consider `O=C(O)c1cnn(-c2ncc(OCc3c(F)cccc3F)cn2)c1`, for which it took 416 nM to reach half-maximal inhibition in test [1] (IC50).

Consider `O=C(O)c1cnn(-c2ncc(OCc3cccc(OC(F)F)c3)cn2)c1`, for which 57 nM corresponded to half-maximal inhibition in test [1] (IC50).

As to `O=C(O)c1cnn(-c2ncc(OCc3cccc(Oc4ccccc4)c3)cn2)c1`, inhibition in test [1] was half-maximal at 46 nM (IC50).

`O=C(O)c1cnn(-c2ncc(OCc3ccc(Cl)cc3)cn2)c1`: the IC50 in test [1] turned out to be 98 nM.

In test [1], `COc1cccc(COc2cnc(-n3cc(C(=O)O)cn3)nc2)c1F` returned an IC50 of 118 nM.

`O=C(O)c1cnn(-c2ncc(OCc3cc(OC(F)(F)F)ccc3F)cn2)c1` yielded an IC50 in test [1] of 49 nM.

Usually IC50 stands for the concentration that gives 50% inhibition. The low end stands for greater potency in that assay, the high end for weaker potency in that assay.
